In patent publication US20230391748A1, “BICYCLIC INHIBITORS OF IRAK” (priority 2022, published 2023):
Read-outs that look alike come from different tables or passages of the source.

Key:
IRAK4 = IRAK4 (Homo sapiens (Human), UniProt Q9NWZ3); assay: IRAK4 ADP-Glo Assay; assay type: biochemical; conditions: MBP substrate
Description: The ADP-Glo™ reagents were thawed at ambient temperature. The Kinase Detection Reagent was prepared by mixing kinase detection buffer with the lyophilized kinase detection substrate, and set aside.
A stock volume of 5× Reaction Kinase Buffer was made with a final concentration of 100 mM MgCl2, 200 mM Tris-HCl, and 0.5 mg/ml of BSA, in distilled H2O with a final pH7.4. A 2× working stock volume of Reaction Kinase Buffer was made containing a final concentration of 100 μM DTT.
The components of IRAK4 Enzyme were thawed on ice. Diluted IRAK4 in 1× Kinase Reaction Buffer (diluted from 2× buffer) was prepared at 5.0 ng/μl.
Then diluted 1:5 in 2× Reaction Buffer in a 96 well plate. 1.0 μl was transferred to a 384 well plate in duplicate. […] 1 μl of 1 mg/ml stock solution of MBP substrate was added NOTE: MBP can be combined with ATP mix with equal volume and then added at 2 μl/well. Final reaction volume was 5 μl.
The plate was centrifuged and the reaction mixture was incubated at room temperature for 60 minutes or at 30° C. for 30 minutes.
The reaction was terminated and the remaining ATP was depleted by adding 5 μl of ADP-Glo™ Reagent. The 384-well plate was centrifuged and then the reaction mixture was incubated for another 40 minutes at ambient temperature.
10 μl of the Kinase Detection Reagent was added. The plate was centrifuged and then the reaction mixture was incubated for another 30 minutes at ambient temperature.
The 384-well reaction plate was read using the WALLAC plate reader (Luminescence 0.1s).

IL23p19 in THP-1 Cells = assay: LPS Induced IL23p19 in THP-1 Cells (with IFNγ Primed) Assay; assay type: cell-based; conditions: Homo sapiens
Description: LPS Induced IL23p19 in THP-1 Cells (with IFNγ Primed) Assay
On day 1, 50K/well THP-1 cells were seeded and primed with IFNγ (50 ng/mL) in 384-well plates for about 18 hours in RPMI media with 10% FBS. […] 50 μL/well 2× compound was added to 50 μL/well THP-1 cells (with IFNγ primed) in duplicate in 384 well tissue culture plates. […] Day 3, after stimulation for 18 hours at 37° C., 5% CO2, the assay plate was centrifuged and 70 μL/well supernatant was harvested. IL-23p19 protein in 70 µL/well of supernatant was measured by sandwich ELISA, and 25 μl/well Cell Titer Glo reagent was added to the remaining cells to measure compound toxicity.
Maxisorp immuno ELISA plates were pre-coated with 25 μL/well of anti-IL-23p19 capture antibody (2.5 ug/mL) in PBS overnight at room temperature. […] 25 μL/well of biotin labeled anti-IL-12(p40/p70) detection antibody (100 ng/mL) in PBS with 1% BSA was added and the plates were incubated at room temperature for 2 hours with shaking. […] The plates were read with a luminometer, and the chemiluminescence values were entered into Athena (Rigel) for curve fitting, EC50 calculation, and database storage.

TNF-α in human PBMCs = assay: R848-induced TNF-α in human PBMCs Assay; assay type: cell-based; conditions: PBMC
Description: R848-induced TNF-α in human PBMCs Assay
100 μL/well PBMCs (200K/well) were seeded in 96-well flat-bottom tissue culture plates. […] 100 μL/well 2× compound was added to the PBMC in the tissue culture plates. […] The cells were stimulated with R848 for an additional 4 hours at 37° C., 5% CO2. The supernatant (100 μl/well) was harvested to measure TNF-α by ELISA. […] The chemiluminescence values were entered into Athena (Rigel) for curve fitting, EC50 calculation, and database storage.
(§1) TNF-α ELISA was performed according to the vendor protocol, using 96 Well Flat-Bottom, MaxiSorp Black Immuno plates and 100 μL/well of supernatant. The plates were developed using 100 μL/well of Super Signal ELISA Pico Chemiluminescent Substrate. The plates were read with a luminometer, and the chemiluminescence values were entered into Athena (Rigel) for curve fitting, EC50 calculation, and database storage.

[1] = test system: TNF-α in Human Primary Monocyte-Derived Dendritic Cells; assay: Gardiquimod-Induced TNF-α in Human Primary Monocyte-Derived Dendritic Cells; assay type: cell-based; conditions: Dendritic cell
Description: Gardiquimod-Induced TNF-α in Human Primary Monocyte-Derived Dendritic Cells
After 2 hours, the media including floating cells was carefully removed and 12 ml of fresh RPMI media (10% FBS) containing GM-CSF (100 ng/ml) and IL-4 (20 ng/ml) were added to the adherent monocytes. The monocytes were allowed to differentiate for 7 days at 37° C., 5% CO2 for 7 days, supplementing with fresh GM-CSF and IL-4 after 3 days. The differentiated dendritic cells (DC) were harvested by centrifugation (1200 rpm/5 min). The DCs were primed at 37° C., 5% CO2 for 24 hours with 50 ng/ml IFN-γ (1000 U/ml) at 50K/well in 100 μl/well of fresh RPMI media (10% FBS) in a white clear bottom 96 well plate.
The primed DCs were pre-incubated with test compound for 1 hour at 37° C., 5% CO2 by adding 100 μl of RPMI media containing 2× concentrated test compound per well (0.5% final DMSO concentration).
DCs were stimulated with Gardiquimod (10 μl per well of 20× concentrated Gardiquimod solution in RPMI media to give a final concentration of 4 μg/ml) at 37° C., 5% CO2 for an additional 6 hours. The supernatant (100 μl/well) was harvested to measure TNF-α by ELISA. […] The chemiluminescence values were entered into Athena (Rigel) for curve fitting, EC50 calculation, and database storage.
as §1

[2] = THP-1, 18 h, read-out: IL23 (THP, LPS) (IC50, μM)
[3] = Homo sapiens, 4 h, read-out: TNFα (PBMC, R848) (IC50, μM)
[4] = IFNγ-primed monocyte-derived dendritic cells, 4 μg/ml Gardiquimod, 6 hours, TNF-α ELISA, read-out: TNFα (DC, GARD) (IC50)

IRAK4, sequence (Q9NWZ3 whole entry): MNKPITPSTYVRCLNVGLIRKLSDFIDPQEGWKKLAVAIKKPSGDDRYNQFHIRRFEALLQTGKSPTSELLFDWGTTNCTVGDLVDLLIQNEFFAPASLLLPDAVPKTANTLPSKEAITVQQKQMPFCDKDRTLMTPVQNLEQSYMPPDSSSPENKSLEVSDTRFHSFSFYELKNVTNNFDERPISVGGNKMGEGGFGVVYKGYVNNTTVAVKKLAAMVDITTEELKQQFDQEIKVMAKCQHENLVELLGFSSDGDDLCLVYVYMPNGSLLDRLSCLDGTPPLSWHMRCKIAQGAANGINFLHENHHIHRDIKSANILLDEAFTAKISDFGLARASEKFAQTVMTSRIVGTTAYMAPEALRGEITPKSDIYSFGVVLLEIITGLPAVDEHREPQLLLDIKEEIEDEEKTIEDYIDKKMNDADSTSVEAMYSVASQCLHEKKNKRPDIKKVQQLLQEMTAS

SMILES	IC50 (IRAK4) [nM]	IC50 (IL23p19 in THP-1 Cells; [2]) [µM]	IC50 (TNF-α in human PBMCs; [3]) [µM]	IC50 ([1]; 6 h, read-out: TNFα (DC, GARD) (IC50, μM)) [µM]	IC50 [1, 4] [µM]	IC50 (IL23p19 in THP-1 Cells; IFNγ-primed THP-1 cells, 1 μg/mL LPS, 18 hours, IL-23p19 ELISA, read-out: IL23 (THP, LPS) (IC50)) [µM]	IC50 (TNF-α in human PBMCs; human PBMCs, 65 ng/mL R848, 4 hours, TNF-α ELISA, read-out: TNFα (PBMC, R848) (IC50)) [µM]
CC(C)Oc1cc2c(OC[C@@H]3CCC(=O)N3)ncc(Br)c2cc1C(N)=O [Compound I-1, (S)-4-bromo-7-isopropoxy-1-((5-oxopyrrolidin-2-yl)methoxy)isoquinoline-6-carboxamide]	34	9.48	2.61	2.64	–	–	–
CC(C)Oc1cc2c(OC[C@@H]3CC(F)(F)C(=O)N3)ncc(Br)c2cc1C(N)=O [Compound I-2, (S)-4-bromo-1-((4,4-difluoro-5-oxopyrrolidin-2-yl)methoxy)-7-isopropoxyisoquinoline-6-carboxamide]	4.4	5.53	1.15	–	5.34	–	–
CC(C)Oc1cc2c(OC[C@@H]3CCC(=O)N3)ncc(C#CC(C)(C)O)c2cc1C(N)=O [Compound I-3, (S)-4-(3-hydroxy-3-methylbut-1-yn-1-yl)-7-isopropoxy-1-((5-oxopyrrolidin-2-yl)methoxy)isoquinoline-6-carboxamide]	12.5	0.879	0.36	–	0.411	–	–
CC(C)Oc1cc2c(OC[C@@H]3CCC(=O)N3)ncc(C#CC3(O)CCN(C)CC3)c2cc1C(N)=O [Compound I-14, (S)-4-((4-hydroxy-1-methylpiperidin-4-yl)ethynyl)-7-isopropoxy-1-((5-oxopyrrolidin-2-yl)methoxy)isoquinoline-6-carboxamide]	5.4	–	3.93	–	7.87	–	–
CC(C)Oc1cc2c(OC[C@@H]3CCC(=O)N3)ncc(C#CC3CCN(C(C)C)CC3)c2cc1C(N)=O [Compound I-19, (S)-7-isopropoxy-4-((1-isopropylpiperidin-4-yl)ethynyl)-1-((5-oxopyrrolidin-2-yl)methoxy)isoquinoline-6-carboxamide]	6.7	0.124	–	–	0.618	–	–
CC(C)Oc1cc2c(OC[C@@H]3CC(F)(F)C(=O)N3)ncc(C#CC3(O)CCN(C(=O)OC(C)(C)C)CC3)c2cc1C(N)=O [Compound I-52, tert-butyl (S)-4-((6-carbamoyl-1-((4,4-difluoro-5-oxopyrrolidin-2-yl)methoxy)-7-isopropoxyisoquinolin-4-yl)ethynyl)-4-hydroxypiperidine-1-carboxylate]	–	4.57	0.338	–	0.927	–	–
CC(C)Oc1cc2c(OC[C@@H]3CC(F)(F)C(=O)N3)ncc(C#CC3CN(C)C3)c2cc1C(N)=O [Compound I-64, (S)-1-((4,4-difluoro-5-oxopyrrolidin-2-yl)methoxy)-7-isopropoxy-4-((1-methylazetidin-3-yl)ethynyl)isoquinoline-6-carboxamide]	3.6	–	0.0215	–	0.0286	–	–
CC[C@@H]1[C@H](F)C(=O)N[C@@H]1COc1ncc(C#CC2CCOCC2)c2cc(C(N)=O)c(OC(C)C)cc12 [Compound I-79, 1-(((2S,3S,4S)-3-ethyl-4-fluoro-5-oxopyrrolidin-2-yl)methoxy)-7-isopropoxy-4-((tetrahydro-2H-pyran-4-yl)ethynyl)isoquinoline-6-carboxamide]	18.1	0.0072	–	–	–	–	–
CCO[C@H]1CC[C@H](C#Cc2cnc(OC[C@H]3NC(=O)[C@@H](F)[C@H]3CC)c3cc(OC(C)C)c(C(N)=O)cc23)CC1 [Compound I-80, 4-(((1r,4S)-4-ethoxycyclohexyl)ethynyl)-1-(((2S,3S,4S)-3-ethyl-4-fluoro-5-oxopyrrolidin-2-yl)methoxy)-7-isopropoxyisoquinoline-6-carboxamide]	390	0.0105	–	–	–	–	–
CCO[C@H]1CC[C@@H](C#Cc2cnc(OC[C@H]3NC(=O)[C@@H](F)[C@H]3CC)c3cc(OC(C)C)c(C(N)=O)cc23)CC1 [Compound I-81, 4-(((1s,4R)-4-ethoxycyclohexyl)ethynyl)-1-(((2S,3S,4S)-3-ethyl-4-fluoro-5-oxopyrrolidin-2-yl)methoxy)-7-isopropoxyisoquinoline-6-carboxamide]	463	0.0163	–	–	–	–	–
CC(C)Oc1cc2c(O[C@@H]3CCCNC3)ncc(C#CC3(O)CCCC3)c2cc1C(N)=O [Compound I-85, (R)-4-((1-hydroxycyclopentyl)ethynyl)-7-isopropoxy-1-(piperidin-3-yloxy)isoquinoline-6-carboxamide]	–	1.96	2.08	–	4.86	–	–
CC(C)Oc1cc2c(O[C@@H]3CCCN(C(=O)CC#N)C3)ncc(C#CC3(O)CCNCC3)c2cc1C(N)=O [Compound I-93, (R)-1-((1-(2-cyanoacetyl)piperidin-3-yl)oxy)-4-((4-hydroxypiperidin-4-yl)ethynyl)-7-isopropoxyisoquinoline-6-carboxamide]	23	–	–	–	–	–	–
CC(C)Oc1cc2c(O[C@@H]3CCCN(C(=O)CC#N)C3)ncc(C#CC3(O)CCN(C)CC3)c2cc1C(N)=O [Compound I-94, (R)-1-((1-(2-cyanoacetyl)piperidin-3-yl)oxy)-4-((4-hydroxy-1-methylpiperidin-4-yl)ethynyl)-7-isopropoxyisoquinoline-6-carboxamide]	56.8	18.8	8.08	–	–	–	–
CC(C)Oc1cc2c(O[C@@H]3CCCN(C(=O)OC(C)(C)C)C3)ncc(-c3cnn(C4CC4)c3)c2cc1C(N)=O [Compound I-107, tert-butyl (R)-3-((6-carbamoyl-4-(1-cyclopropyl-1H-pyrazol-4-yl)-7-isopropoxyisoquinolin-1-yl)oxy)piperidine-1-carboxylate]	–	–	–	–	–	103	38.2
CC(C)Oc1cc2c(O[C@@H]3CCCN(C(=O)CC#N)C3)ncc(-c3cnn(C4CCNCC4)c3)c2cc1C(N)=O [Compound I-122, (R)-1-((1-(2-cyanoacetyl)piperidin-3-yl)oxy)-7-isopropoxy-4-(1-(piperidin-4-yl)-1H-pyrazol-4-yl)isoquinoline-6-carboxamide]	24	–	2.16	–	1	–	–
